The text below walks through data of EP3263567A1, “CARBOXAMIDE-SUBSTITUTED PYRAZOLES AND TRI(HETERO)ARYL-PYRAZOLES FOR USE IN METHODS OF TREATING AND / OR PREVENTING CARDIOVASCULAR DISEASES AND / OR COMORBIDITIES THEREOF” (AiCuris Anti-infective Cures GmbH, priority 2016, dated 2018).

One may read the IC50 as the concentration that inhibits the measured activity by half. The AUC(0-inf) is total exposure, with the tail of the curve extrapolated. Low values mean less exposure, high ones more exposure.

One data set concerns the target T1, human HCN4 currents (Homo sapiens, UniProt Q9Y3Q4).
T1 construct: CHO cells transiently expressing the HCN4 channel; expressed in transfected cells; host or cells: CHO (ATCC CCL-61), transiently transfected
T1 sequence (Q9Y3Q4 1-1203): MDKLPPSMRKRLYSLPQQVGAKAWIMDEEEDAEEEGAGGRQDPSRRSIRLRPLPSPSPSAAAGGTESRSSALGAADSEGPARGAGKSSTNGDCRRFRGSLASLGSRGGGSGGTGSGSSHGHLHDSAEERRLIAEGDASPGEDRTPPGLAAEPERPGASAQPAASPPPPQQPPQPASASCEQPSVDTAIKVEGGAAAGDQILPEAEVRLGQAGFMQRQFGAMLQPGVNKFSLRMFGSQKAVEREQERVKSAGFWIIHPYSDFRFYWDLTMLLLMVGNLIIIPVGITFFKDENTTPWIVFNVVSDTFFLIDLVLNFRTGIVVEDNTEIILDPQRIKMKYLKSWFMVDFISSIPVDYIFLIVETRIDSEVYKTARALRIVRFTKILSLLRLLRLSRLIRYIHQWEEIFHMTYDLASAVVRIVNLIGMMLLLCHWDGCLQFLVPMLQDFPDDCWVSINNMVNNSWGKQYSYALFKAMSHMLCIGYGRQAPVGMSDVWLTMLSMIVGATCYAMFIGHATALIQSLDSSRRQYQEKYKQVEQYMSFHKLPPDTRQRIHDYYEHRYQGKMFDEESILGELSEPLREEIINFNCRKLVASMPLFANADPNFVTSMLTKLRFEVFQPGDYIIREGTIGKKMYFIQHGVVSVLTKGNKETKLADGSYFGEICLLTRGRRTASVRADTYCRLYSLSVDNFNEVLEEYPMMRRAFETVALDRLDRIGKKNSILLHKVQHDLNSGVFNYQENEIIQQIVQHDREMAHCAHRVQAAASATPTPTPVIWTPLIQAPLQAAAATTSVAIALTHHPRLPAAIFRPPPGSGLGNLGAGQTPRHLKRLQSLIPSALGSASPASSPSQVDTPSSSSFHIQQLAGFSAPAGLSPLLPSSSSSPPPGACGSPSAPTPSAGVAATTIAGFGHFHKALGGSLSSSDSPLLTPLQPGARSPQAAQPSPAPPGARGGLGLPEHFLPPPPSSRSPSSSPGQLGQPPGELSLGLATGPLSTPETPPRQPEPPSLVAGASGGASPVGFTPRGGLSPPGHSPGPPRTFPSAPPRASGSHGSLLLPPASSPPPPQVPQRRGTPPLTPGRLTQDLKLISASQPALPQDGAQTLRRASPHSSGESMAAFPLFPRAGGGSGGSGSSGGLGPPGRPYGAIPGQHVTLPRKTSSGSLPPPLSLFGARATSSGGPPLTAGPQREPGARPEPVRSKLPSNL
Nature of the data set: Whole-cell patch-clamp, HCN4 steady state currents in transiently transfected CHO cells. The conditions noted are these: for IC50: CHO cells transiently expressing HCN4, steady state current at -120 mV, n=3, read-out: IC50 (inhibition of HCN4 currents); for inhibition of the HCN4 current (result in words): tested first at 10 µM. Type of data set: cell-based. An excerpt: The following six compounds in accordance with the invention: • Compound A: [drawing 81] i.e. 4-[5-[3-Chloro-5-(trifluoromethoxy) phenyl]-1-(pyridin-3-yl)-1H-pyrazol-3-yl]-5,6-dihydro-7H-pyrrolo[3,4-d]pyrimidin-7-one, • Compound B: [drawing 82] i.e. 4-[5-[3-Chloro-5-(trifluoromethoxy) phenyl]-1-(pyridin-3-yl)-1H-pyrazol-3-yl]-2,3-dihydro-1H-pyrrolo[3,4-c] pyridin-1-one, • Compound C: [drawing 83] i.e. 4-[5-[3-Chloro-5-(trifluoromethoxy) phenyl]-1-(pyridin-3-yl)-1H-pyrazol-3-yl]-5,6-dihydro-2-methyl-7H-pyrrolo[3, 4-d] pyrimidin-7-one, • Compound D: [drawing 84] i.e. 3-Amino-4-[5-[3-chloro-5-(trifluoromethoxy) phenyl]-1-(pyridin-3-yl)-1H-pyrazol-3-yl-carbonyl]-1,5-dihydro-2H-pyrrol-2-one, • Compound E: [drawing 85] i.e. 1-[[5-[3-Chloro-5-(trifluoromethoxy) phenyl]-1-(pyridin-3-yl)-1H-pyrazol-3-yl]carbonyl]-imidazolidin-4-one, • Compound F: [drawing 86] i.e. 4-[5-[3-Chloro-5-(trifluoromethoxy) phenyl]-1-(3-cyano-4-fluoro-phenyl)-1H-pyrazol-3-yl]-5,6-dihydro-7H-pyrrolo[3,4-d]pyrimidin-7-one, were tested on their effects on human HCN4 currents recorded from transiently transfected CHO cells, in direct comparison to the reference compounds described below: • Ivabradine: [drawing 87] i.e. ((S)-3-{3-[([3,4-Dimethoxy-bicyclo [4.2.0]octa-1,3,5-trien-7-yl]methyl)methylamino]propyl}-1,3,4,5-tetrahydro-7,8-dimethoxy-2H-3-benzazepin-2-on), • Compound X: [drawing 88] i.e. 1-[[1-(3-Chloro-4-fluorophenyl)-5-(3-chloro-5-fluorophenyl)-1 H-pyrazol-3-yl]carbonyl]-imidazolidin-4-one, • Compound Y: [drawing 89] i.e. N-(2-Amino-2-oxoethyl)-1-(3-chloro-4-fluorophenyl)-5-(3-chloro-5-fluorophenyl)-1H-pyrazole-3-carboxamide.
The pyrazole compounds X and Y as depicted above, and having structural similarities to the compounds of general formula (I) of the invention, were also tested to investigate whether the pure If current inhibitory effect of the compounds of the invention also extend to structurally closely related compounds.
Dependent on their solubility in the assay buffer, the compounds were tested first at one concentration of 10 µM (compound A, compound Y, compound X, compound B, compound E, compound F and ivabradine) or 1 µM for (compound C and D). If the current blocking of HCN4 at this concentration was higher than 50% the compounds were tested again at five concentrations of a half-logarithmic dilution series starting with either 10 µM or 1 µM as mentioned above (meaning 0.1 µM, 0.3 µM, 1 µM, 3 µM, and 10 µM or 0.01 µM, 0.03 µM 0.1 µM, 0.3 µM and 1 µM).
Test system: CHO cells transiently expressing the HCN4 channel; NCBI Reference Sequence: NP005468.1 (HCN4 channel); Source CHO: ATCC, CCL-61 LGC Standards GmbH, Wesel, Germany were used.
In 35 mm culture dishes CHO cells were seeded at a density allowing single cells to be recorded on the dish holder of the microscope and continuously perfused (at approximately 1 mL/min) with the bath solution described above. All solutions applied to cells including the pipette solution were maintained at room temperature (19 °C - 30 °C). After formation of a Gigaohm seal between the patch electrodes and individual cells (pipette resistance range: 2.0 MΩ - 7.0 MΩ; seal resistance range: > 1 GΩ) the cell membrane across the pipette tip was ruptured to assure electrical access to the cell interior (whole-cell patch-configuration). As soon as a stable seal was established, steady state currents were measured upon the hyperpolarization to -120 mV (2000 ms) from a holding potential of -40 mV. This voltage protocol (as shown in the scheme below) did run 5 times for control conditions and at least ten times for each test concentration. Pulse intervals were 20 s (0.05 Hz). If current amplitude was judged to be too low for measurement, another cell was recorded.
Once control recordings have been accomplished, cells were continuously perfused with bath solution containing the tested compounds as detailed above, 0.1 % DMSO or 100 µM ZD7288. […]
Background: The patch-clamp technique gives a direct electrical read-out from membranes.

A further data set concerns the target T2, HCN4 (Homo sapiens, UniProt Q9Y3Q4).
T2 sequence (Q9Y3Q4 1-1203): T1 sequence (Q9Y3Q4 1-1203)
The following applies: literature value, Stieber et al. (2006) Mol Pharmacol 69, 1328-1337; read-out: IC50 mean (block of HCN4 channels); cited from earlier work.

A further data set is described as follows: in vivo. The following applies: dog, po, 30 mg/kg.
Data set [1] is described as follows: Pharmacokinetics after single oral administration of formulations to dogs. The conditions noted are these: 30 mg/kg single oral dose.
Protocol: (§1) A single oral dose of 30 or 100 mg/kg was applied to dogs. Pharmacokinetic parameters were assessed and compared.
Male and female Beagle dogs.
(§2) Plasma concentrations were obtained by LC-MS/MS measurements.

The structures appear in SMILES notation.

Protocol for in vivo: as §1
Male and female Beagle dogs.
as §2

Turning to `O=C1NCc2c1ccnc2-c1cc(-c2cc(Cl)cc(OC(F)(F)F)c2)n(-c2cccnc2)n1` [Compound B, 4-[5-[3-Chloro-5-(trifluoromethoxy)phenyl]-1-(pyridin-3-yl)-1H-pyrazol-3-yl]-2,3-dihydro-1H-pyrrolo[3,4-c] pyridin-1-one], the “block of HCN4 currents at a single concentration” value at human HCN4 currents (0.1 µM) is on record as “almost completely”. For the same compound, at human HCN4 currents, the IC50 lay within 30 to 580 nM. Turning to `Cc1nc2c(c(-c3cc(-c4cc(Cl)cc(OC(F)(F)F)c4)n(-c4cccnc4)n3)n1)CNC2=O` [Compound C, 4-[5-[3-Chloro-5-(trifluoromethoxy)phenyl]-1-(pyridin-3-yl)-1H-pyrazol-3-yl]-5,6-dihydro-2-methyl-7H-pyrrolo[3,4-d] pyrimidin-7-one], on human HCN4 currents, the IC50 is 30 to 580 nM. Still for that read-out and setting: the figure for `O=C1CN(C(=O)c2cc(-c3cc(Cl)cc(OC(F)(F)F)c3)n(-c3cccnc3)n2)CN1` [Compound E, 1-[[5-[3-Chloro-5-(trifluoromethoxy)phenyl]-1-(pyridin-3-yl)-1H-pyrazol-3-yl]carbonyl]-imidazolidin-4-one] is 30 to 580 nM.

`O=C1CN(C(=O)c2cc(-c3cc(F)cc(Cl)c3)n(-c3ccc(F)c(Cl)c3)n2)CN1` [Compound X, 1-[[1-(3-Chloro-4-fluorophenyl)-5-(3-chloro-5-fluorophenyl)-1 H-pyrazol-3-yl]carbonyl]-imidazolidin-4-one, reference compound]: the “inhibition of the HCN4 current (result in words)” value against human HCN4 currents is given as “not identified as inhibitors of the HCN4 current”. For the compound `NC(=O)CNC(=O)c1cc(-c2cc(F)cc(Cl)c2)n(-c2ccc(F)c(Cl)c2)n1` [Compound Y, N-(2-Amino-2-oxoethyl)-1-(3-chloro-4-fluorophenyl)-5-(3-chloro-5-fluorophenyl)-1H-pyrazole-3-carboxamide, reference compound], the “inhibition of the HCN4 current (result in words)” value on human HCN4 currents was “not identified as inhibitors of the HCN4 current”.

With `NC1=C(C(=O)c2cc(-c3cc(Cl)cc(OC(F)(F)F)c3)n(-c3cccnc3)n2)CNC1=O` [Compound D, 3-Amino-4-[5-[3-chloro-5-(trifluoromethoxy)phenyl]-1-(pyridin-3-yl)-1H-pyrazol-3-yl-carbonyl]-1,5-dihydro-2H-pyrrol-2-one], the 50% inhibitory concentration (IC50) on human HCN4 currents was 30 to 580 nM. As for `COc1cc2c(cc1OC)CC(=O)N(CCCN(C)C[C@H]1Cc3cc(OC)c(OC)cc31)CC2` [Ivabradine, (S)-3-{3-[([3,4-Dimethoxy-bicyclo [4.2.0]octa-1,3,5-trien-7-yl]methyl)methylamino]propyl}-1,3,4,5-tetrahydro-7,8-dimethoxy-2H-3-benzazepin-2-on, reference compound], the figures for the IC50 on human HCN4 currents and on HCN4 were 4460 nM and roughly 2150 nM, respectively. Consider `N#Cc1cc(-n2nc(-c3ncnc4c3CNC4=O)cc2-c2cc(Cl)cc(OC(F)(F)F)c2)ccc1F` [Compound F, 4-[5-[3-Chloro-5-(trifluoromethoxy)phenyl]-1-(3-cyano-4-fluoro-phenyl)-1H-pyrazol-3-yl]-5,6-dihydro-7H-pyrrolo[3,4-d]pyrimidin-7-one], for which the half-inhibitory concentration (IC50) at human HCN4 currents was in the range of 30 to 580 nM.

In the case of `CCN(c1ccccc1)c1cc(NC)[n+](C)c(C)n1` [ZD7288, reference compound], the “relative steady state current (HCN4)” value on human HCN4 currents (100 µM, mean ± SEM of n=3 cells) is given as 12.89 ± 1.19%. With `O=C1NCc2c1ncnc2-c1cc(-c2cc(Cl)cc(OC(F)(F)F)c2)n(-c2cccnc2)n1` [ethane sulfonate], the area under the curve AUC(0-inf) in “in vivo” was 218 µg·h/mL. For the same compound, the vomiting entry in data set [1] is “two to three out of four animals”.
